The source of these data is patent US12421193B2, “GPR52 modulators and methods of use” (Neurocrine Biosciences, Inc., priority 2020, dated 2025).

The target of this assay is T1, recombinant human GPR52 (Homo sapiens, UniProt Q9Y2T5).
T1 construct: expressed in transfected cells
As to the kind of experiment: TR-FRET cAMP assay (LANCE Ultra cAMP Kit), GPR52 activity. Type of assay: cell-based. The following applies: Flp-In-CHO cells stably expressing recombinant human GPR52; cAMP production, normalized to the positive control. The method, boiled down:
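Flp-In CHO cells stably expressing human GPR52 (2000/well) in stimulation buffer with 0.5 mM IBMX, pH 7.4, were exposed to compound in 10-point duplicate curves for 30 min at room temperature. cAMP was detected by LANCE Ultra TR-FRET, and EC50 was taken from nonlinear fits normalized to the positive control.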
Background: Time-resolved FRET reads energy transfer from a long-lived donor to a nearby acceptor.

pEC50: −log10 of the molar value.

As a reminder, the pEC50 is −log10 of the EC50, conventionally taken in molar units.

T1 sequence (Q9Y2T5 whole entry): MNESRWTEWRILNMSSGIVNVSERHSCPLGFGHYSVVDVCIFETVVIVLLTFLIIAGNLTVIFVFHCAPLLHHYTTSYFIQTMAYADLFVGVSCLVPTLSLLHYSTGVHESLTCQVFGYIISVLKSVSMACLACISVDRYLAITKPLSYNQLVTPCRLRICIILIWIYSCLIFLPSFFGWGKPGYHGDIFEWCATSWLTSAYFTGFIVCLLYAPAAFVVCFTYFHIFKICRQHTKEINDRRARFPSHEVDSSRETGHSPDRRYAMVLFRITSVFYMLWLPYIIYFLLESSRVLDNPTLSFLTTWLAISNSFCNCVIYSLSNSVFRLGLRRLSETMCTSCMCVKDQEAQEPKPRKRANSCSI

As for `Cc1cc(-c2cc(COc3ccnc(C(F)(F)F)c3)ccn2)ccc1C(N)=O` [Example 11, 4-[4-({[2-(trifluoromethyl)pyridin-4-yl]oxy}methyl)pyridin-2-yl]-2-methyl benzamide], the pEC50 is 6.00 to 7.00. As for `Cc1cc(-c2cncc(COc3cc(F)c(F)c(F)c3)c2)ccc1C(N)=O` [Example 100, 4-[5-(3,4,5-trifluorophenoxymethyl)pyridin-3-yl]2-methylbenzamide], the figure is 6.00 to 7.00; as for `CC(=O)c1ccc(OCc2ccnc(-c3ccc(C(N)=O)c(C)c3)c2)cc1C` [Example 13, 4-[4-(4-acetyl-3-methylphenoxymethyl)pyridin-2-yl]-2-methylbenzamide], over 7.60; as for `Cc1cc(-c2cc(COc3ccc4nn(C)cc4c3)ccn2)ccc1C(N)=O` [Example 72, 4-(4-{[(2-methyl-2H-indazol-5-yl)oxy]methyl}pyridin-2-yl)-2-methyl benzamide], 6.00 to 7.00. Regarding `Cc1cc(-c2cc(COc3cc(Cl)cc(Cl)c3)ccn2)ccc1C(N)=O` [Example 20, 4-[4-(3,5-dichlorophenoxymethyl)pyridin-2-yl]-2-methylbenzamide], the pEC50 was over 7.60.
